In ChEMBL document CHEMBL1144776, “Anti-inflammatory constituents of the red alga Gracilaria verrucosa and their synthetic analogues” (J Nat Prod, 2008):
Activity calls are given as the source filed them. The rule behind the calls is not given here.

How the values were obtained:
Assay type in all cases: functional, cell-based
RAW264.7 [1] = assay: Antiinflammatory activity in mouse RAW264.7 cells assessed as inhibition of LPS-stimulated NO production at 5 to 20 ug/mL after 24 hrs by […]
RAW264.7 [2] = assay: Antiinflammatory activity in mouse RAW264.7 cells assessed as inhibition of LPS-stimulated nitric oxide production after 24 hrs by […]; details: RAW264.7, 24 h
RAW264.7 [3] = assay: Suppression of iNOS mRNA expression in mouse RAW264.7 cells

Row | IC50 (RAW264.7 [2]) [µM] | SMILES | Activity (RAW264.7 [1]) | Activity (RAW264.7 [3])
1 |  | CCCCCCCC/C=C(\C(=O)CCCCCCC(=O)O)c1ccccc1 | inactive | 
2 |  | CCCCCCC/C=C(\C(=O)CCCCCCCC(=O)O)c1ccccc1 | inactive | 
3 | < 33.8 | CCCCCCCCC(=O)/C=C/CCCCCCC(=O)O |  | Active
4 | < 33.8 | CCCCCCC/C=C/C(=O)CCCCCCCC(=O)O |  | Active
5 |  | CCCCCCC/C=C(\C(=O)CCCCCCCC(=O)OC)c1ccccc1 | inactive | 
6 |  | CCCCCCCC(=O)/C(=C\CCCCCCCC(=O)OC)c1ccccc1 | inactive | 
